Biological target: T1, human HPK1 protein (Homo sapiens, UniProt Q92918)
T1 construct: recombinant human HPK1 protein (a.a. 1-346) was expressed in Sf9 insect cells; GST (N); purchased Signalchem M23-11G; host or cells: Sf9 insect cells (baculovirus)
T1 sequence (Q92918 1-346): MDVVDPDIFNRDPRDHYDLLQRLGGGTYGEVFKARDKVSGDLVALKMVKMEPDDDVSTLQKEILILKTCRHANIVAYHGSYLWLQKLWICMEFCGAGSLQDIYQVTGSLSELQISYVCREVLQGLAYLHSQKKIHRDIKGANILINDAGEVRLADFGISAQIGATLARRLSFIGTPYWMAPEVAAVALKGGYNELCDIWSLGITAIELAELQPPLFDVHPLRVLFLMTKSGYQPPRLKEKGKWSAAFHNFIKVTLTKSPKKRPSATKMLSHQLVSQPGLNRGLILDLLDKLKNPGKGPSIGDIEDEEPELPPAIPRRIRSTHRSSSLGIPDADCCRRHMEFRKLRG
Experiment: Human HPK1 protein TR-FRET assay
Format: biochemical
Conditions: 1 mM ATP
Experimental: Exemplary compounds from the above Examples were tested for ability to inhibit HPK1 using a human HPK1 protein TR-FRET Assay. Assay procedures and results are described below.
N-terminal GST-tagged recombinant human HPK1 protein (a.a. 1-346) was expressed in Sf9 insect cells using a baculovirus expression system (Signalchem Catalog #M23-11G). The enzyme was diluted in assay buffer (50 mM Tris pH 7.5, 1 mM MgCl2, 0.01% NP-40 and 2 mM DTT) to obtain a 4× working solution at a concentration of 40 nM HPK1 enzyme.
A 5 μM stock of ULight™ CREBtide peptide RRPSYRK (Perkin Elmer Product No. TRF0107-M) derived from human cAMP Response Element Binding (CREB) Protein was prepared in storage buffer containing 50 mM Tris-HCl (pH 7.4), 0.9% NaCl, 0.1% BSA, and 0.05% sodium azide. The CREBtide substrate was diluted in assay buffer (50 mM Tris pH 7.5, 1 mM MgCl2, 0.01% NP-40, 2 mM DTT) with 2 mM ATP to a final concentration of 200 nM CREBtide peptide to obtain a 2× working solution of substrate. HPK1 enzyme and CREBtide substrate solutions were mixed with compounds diluted in DMSO to obtain a final concentration of enzyme, substrate, and ATP of 10 nM, 100 nM, and 1 mM, respectively, in 1% DMSO. The final assay mixture was incubated at room temperature for 60 minutes.
A solution of Europium-labeled anti-phospho-CREB (Ser133) antibody (Perkin Elmer Product No. TRF0200-M), EDTA and LANCE™ Detection Buffer (Perkin Elmer Product No. CR97-100) were added to each well to obtain a final concentration of 2 nM antibody, 10 mM EDTA and 1× LANCE buffer. The resulting mixture was incubated at room temperature for 60 minutes.
The fluorescence resonance energy transfer (FRET) signal was measured on an Envision plate reader: Excitation filter=340 nm, APC emission=665 nm, Europium emission=615 nm, dichroic mirror=D400/D630, delay time=100 μs, and integration time=200 μs. The half maximal inhibitory concentration (IC50) values for compounds were calculated from the quotient of the fluorescence signal at 665 nm divided by the fluorescence signal at 615 nm. The quotient of the fluorescence signals in the presence of DMSO without compound is set as 100 percent enzymatic activity. A 4-parameter logistic model in PRISM (GraphPad) was used to calculate the IC50 for a given compound.

Structure (SMILES) | IC50 (Table 19) [nM] | IC50 (Table 20) [nM]
Cc1cc2c(Oc3ccc4c(c3)[C@H](C)N(C(=O)Nc3cnc(OC5CCCN(C)C5)c(C(F)(F)F)c3)CC4)ccnc2[nH]1 (mixture of isomers) [VI-6] | 500 to 5000 | –
Cc1cc2c(Oc3ccc4c(c3)[C@H](C)N(C(=O)Nc3cnc(OC5CCCN(C)CC5)c(C(F)(F)F)c3)CC4)ccnc2[nH]1 (mixture of isomers) [VI-13] | 500 to 5000 | –
CCN1CCN(Cc2ccc(NC(=O)N3Cc4cc(Oc5ccnc6[nH]ccc56)ccc4C(C)C3)cc2C(F)(F)F)CC1 (single isomer, unassigned) [IV-2] | < 500 | –
CCN1CCN(Cc2ccc(NC(=O)N3CCc4c(C)cc(Oc5ccnc6[nH]ccc56)cc4C3C)cc2C(F)(F)F)CC1 (single isomer, unassigned) [IV-4] | < 500 | –
CCN1CCN(Cc2ccc(NC(=O)N3CCc4cc(F)c(Oc5ccnc6[nH]ccc56)cc4C3C)cc2C(F)(F)F)CC1 (single isomer, unassigned) [IV-6] | < 500 | –
CCN1CCN(Cc2ccc(NC(=O)N3CCc4cc(F)c(Oc5ccnc6[nH]c(C)cc56)cc4C3C)cc2C(F)(F)F)CC1 (single isomer, unassigned) [IV-25] | < 500 | –
Cc1cc2c(Oc3ccc4c(c3)CN(C(=O)Nc3cnc(OC5CCN(C)CC5)c(C(F)(F)F)c3)CC4C)ccnc2[nH]1 (single isomer, unassigned) [IV-39] | < 500 | –
Cc1cc2c(Oc3ccc4c(c3)CN(C(=O)Nc3cnc(OC5CCN(C)CC5)c(C(F)(F)F)c3)CC4C)ccnc2[nH]1 (single isomer, unassigned) [IV-40] | < 500 | –
CCN1CCN(Cc2ccc(NC(=O)N3Cc4cc(Nc5ccnc(NC)c5)cnc4C(C)C3)cc2C(F)(F)F)CC1 (single isomer, unassigned) [IX-2] | 500 to 5000 | –
CCN1CCN(Cc2ccc(NC(=O)N3Cc4cc(Nc5ccnc(NC)c5)cnc4C(C)C3)cc2C(F)(F)F)CC1 (single isomer, unassigned) [IX-3] | 5000 to 10000 | –
CCN1CCN(Cc2ccc(NC(=O)N3Cc4cc(Oc5ccnc6[nH]c(C)cc56)cnc4C(C)C3)cc2C(F)(F)F)CC1 (single isomer, unassigned) [VII-4] | < 500 | –
CCN1CCN(Cc2ccc(NC(=O)N3Cc4cc(Oc5ccnc6[nH]c(C)cc56)cnc4C(C)C3)cc2C(F)(F)F)CC1 (single isomer, unassigned) [VII-5] | < 500 | –
Cc1cc2c(Oc3cnc4c(c3)CN(C(=O)Nc3cnc(OC5CCN(C)CC5)c(C(F)(F)F)c3)CC4C)ccnc2[nH]1 (single isomer, unassigned) [VII-7] | < 500 | –
Cc1cc2c(Oc3cnc4c(c3)CN(C(=O)Nc3cnc(OC5CCN(C)CC5)c(C(F)(F)F)c3)CC4C)ccnc2[nH]1 (single isomer, unassigned) [VII-8] | < 500 | –
CCN1CCN(Cc2ccc(NC(=O)N3Cc4cc(Oc5ccnc6[nH]c(C)cc56)cnc4C(C)C3)cc2C(F)(F)F)CC1 (single isomer, unassigned) [VII-20] | < 500 | –
CCN1CCN(Cc2ccc(NC(=O)N3Cc4cc(Oc5ccnc6[nH]c(C)cc56)cnc4C(C)C3)cc2C(F)(F)F)CC1 (single isomer, unassigned) [VII-21] | < 500 | –
CCC1CN(C(=O)Nc2ccc(CN3CCN(CC)CC3)c(C(F)(F)F)c2)Cc2cc(Oc3ccnc4[nH]c(C)cc34)cnc21 (single isomer, unassigned) [VII-22] | < 500 | –
CCC1CN(C(=O)Nc2ccc(CN3CCN(CC)CC3)c(C(F)(F)F)c2)Cc2cc(Oc3ccnc4[nH]c(C)cc34)cnc21 (single isomer, unassigned) [VII-23] | < 500 | –
CCN1CCN(Cc2ccc(NC(=O)N3CCc4ncc(Oc5ccnc6[nH]c(C)cc56)cc4C3C)cc2C(F)(F)F)CC1 (single isomer, unassigned) [VIII-2] | < 500 | –
CCN1CCN(Cc2ccc(NC(=O)N3CCc4ncc(Oc5ccnc6[nH]ncc56)cc4C3C)cc2C(F)(F)F)CC1 (single isomer, unassigned) [VIII-4] | 500 to 5000 | –
CCN1CCN(Cc2ccc(NC(=O)N3CCc4ncc(Oc5ccnc6[nH]ncc56)cc4C3C)cc2C(F)(F)F)CC1 (single isomer, unassigned) [VIII-5] | 500 to 5000 | –

Structure (SMILES) | IC50 (Table 19) [nM] | IC50 (Table 20) [nM]
CCN1CCN(Cc2ccc(NC(=O)N3CCc4ncc(Oc5ccnc6[nH]c(C)cc56)cc4C3C)cc2C(F)(F)F)CC1 (single isomer, unassigned) [XI-9] | – | < 500
CCN1CCN(Cc2ccc(NC(=O)N3Cc4cc(Oc5ccnc6c5CCC(=O)N6)cnc4C(C)C3)cc2C(F)(F)F)CC1 (single isomer, unassigned) [XIV-1] | – | < 500
CCN1CCN(Cc2ccc(NC(=O)N3Cc4cc(Oc5ccnc6[nH]c(=O)ccc56)cnc4C(C)C3)cc2C(F)(F)F)CC1 (single isomer, unassigned) [XIV-2] | – | < 500
CCN1CCN(Cc2ccc(NC(=O)N3Cc4cc(Oc5ccnc6[nH]c(=O)cnc56)cnc4C(C)C3)cc2C(F)(F)F)CC1 (single isomer, unassigned) [XIV-7] | – | 500 to 5000
CCN1CCN(Cc2ccc(NC(=O)N3Cc4cc(Oc5ccnc6ncc(=O)[nH]c56)cnc4C(C)C3)cc2C(F)(F)F)CC1 (single isomer, unassigned) [XIV-8] | – | 500 to 5000
CCN1CCN(Cc2ccc(NC(=O)N3Cc4cc(Oc5ccnc6[nH]c(=O)[nH]c56)cnc4C(C)C3)cc2C(F)(F)F)CC1 (single isomer, unassigned) [XIV-12] | – | < 500
CCN1CCN(Cc2ccc(NC(=O)N3Cc4cc(Oc5ccnc6[nH]c(C7CC7)nc56)cnc4C(C)C3)cc2C(F)(F)F)CC1 (single isomer, unassigned) [XIV-15] | – | < 500
CCN1CCN(Cc2ccc(NC(=O)N3Cc4cc(Oc5ccnc(NCCO)c5)cnc4C(C)C3)cc2C(F)(F)F)CC1 (single isomer, unassigned) [XIV-16] | – | 500 to 5000
CCN1CCN(Cc2ccc(NC(=O)N3Cc4cc(Oc5ccnc6[nH]nnc56)cnc4C(C)C3)cc2C(F)(F)F)CC1 (single isomer, unassigned) [XIV-17] | – | > 10000
CCN1CCN(Cc2ccc(NC(=O)N3Cc4cc(Oc5cc(N)ncc5F)cnc4C(C)C3)cc2C(F)(F)F)CC1 (single isomer, unassigned) [XIV-18] | – | 5000 to 10000
CCN1CCN(Cc2ccc(NC(=O)N3Cc4cc(Oc5ccnc6[nH]c(C)nc56)cnc4C(C)C3)cc2C(F)(F)F)CC1 (single isomer, unassigned) [XIV-27] | – | 5000 to 10000
CCN1CCN(Cc2ccc(NC(=O)N3Cc4cc(Oc5ccnc6[nH]c(-c7cnn(C)c7)nc56)cnc4C(C)C3)cc2C(F)(F)F)CC1 (single isomer, unassigned) [XIV-30] | – | < 500
Cc1cc2c(Oc3ccc4c(c3)[C@H](C)N(C(=O)Nc3cnc(OC5CCN(C)CC5C)c(C(F)(F)F)c3)CC4)ccnc2[nH]1 (stereo in doubt) [VI-4] | 500 to 5000 | –
Cc1cc2c(Oc3ccc4c(c3)[C@H](C)N(C(=O)Nc3cnc(OC5CCN(C)CC5C)c(C(F)(F)F)c3)CC4)ccnc2[nH]1 (stereo in doubt) [VI-5] | < 500 | –
Cc1cc2c(Oc3ccc4c(c3)[C@H](C)N(C(=O)Nc3cnc(OC5CCN(C)CC5O)c(C(F)(F)F)c3)CC4)ccnc2[nH]1 (stereo in doubt) [VI-8] | < 500 | –
Cc1cc2c(Oc3ccc4c(c3)[C@H](C)N(C(=O)Nc3cnc(OC5CCN(C)CC5O)c(C(F)(F)F)c3)CC4)ccnc2[nH]1 (stereo in doubt) [VI-9] | 500 to 5000 | –
Cc1cc2c(Oc3ccc4c(c3)[C@H](C)N(C(=O)Nc3cnc(OC5CCN(C)CC5F)c(C(F)(F)F)c3)CC4)ccnc2[nH]1 (stereo in doubt) [VI-10] | 500 to 5000 | –
Cc1cc2c(Oc3ccc4c(c3)[C@H](C)N(C(=O)Nc3cnc(OC5CCN(C)CC5F)c(C(F)(F)F)c3)CC4)ccnc2[nH]1 (stereo in doubt) [VI-11] | 500 to 5000 | –
CCN1CCN(Cc2ccc(NC(=O)N3CCc4ccc(Oc5cc(NC)ncn5)cc4C3)cc2C(F)(F)F)CC1 [II-1] | < 500 | –
CCN1CCN(Cc2ccc(NC(=O)N3CCc4ccc(Oc5ncnn6cc(-c7cnn(C)c7)cc56)cc4C3)cc2C(F)(F)F)CC1 [II-2] | < 500 | –
CCN1CCN(Cc2ccc(NC(=O)N3CCc4ccc(Oc5ncnc6[nH]ccc56)cc4C3)cc2C(F)(F)F)CC1 [II-3] | < 500 | –

From patent US20210139484A1, “DIHYDROISOQUINOLINE-2(1H)-CARBOXAMIDE AND RELATED COMPOUNDS AND THEIR USE IN TREATING MEDICAL CONDITIONS” (GOSSAMER BIO SERVICES, INC., priority 2018, published 2021)
